Measured values: ChEMBL document CHEMBL1201862, “PubChem BioAssay data set” (2004)
Activity calls are given as the source filed them.

How the values were obtained:
[1] = HEK-293T viability loss, compound-treated – cell-based, uHTS hits, cytotoxicity control for B/T-cell NF-kB inhibitor project, dose response (AID 489019); format: functional;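 further: IC50 reflects cytotoxicity as loss of cell viability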
Tumor necrosis factor = Tumor necrosis factor (Homo sapiens, UniProt P01375); assay: analog potency on TNFa NF-kB signaling – cell-based, revised, SAR follow-up (AID 2337); format: functional
INS1 = assay: INS-1E survival protection against cytokine death – cell-based, luminescence, retest, dose response (AID 449756); format: functional; conditions: Rattus norvegicus;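 further: cell death triggered by IL-1 beta plus TNF-alpha plus IFN-gamma mixture; protective hits raise ATP signal compared with cytokine alone wells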
[2] = biological target: T1, Nucleotide-binding oligomerization domain-containing protein 1 (Homo sapiens, UniProt Q9Y239); assay: blockers of NOD1 pathway activity – revised, SAR follow-up (AID 2333); format: functional
T1 sequence (Q9Y239 whole entry): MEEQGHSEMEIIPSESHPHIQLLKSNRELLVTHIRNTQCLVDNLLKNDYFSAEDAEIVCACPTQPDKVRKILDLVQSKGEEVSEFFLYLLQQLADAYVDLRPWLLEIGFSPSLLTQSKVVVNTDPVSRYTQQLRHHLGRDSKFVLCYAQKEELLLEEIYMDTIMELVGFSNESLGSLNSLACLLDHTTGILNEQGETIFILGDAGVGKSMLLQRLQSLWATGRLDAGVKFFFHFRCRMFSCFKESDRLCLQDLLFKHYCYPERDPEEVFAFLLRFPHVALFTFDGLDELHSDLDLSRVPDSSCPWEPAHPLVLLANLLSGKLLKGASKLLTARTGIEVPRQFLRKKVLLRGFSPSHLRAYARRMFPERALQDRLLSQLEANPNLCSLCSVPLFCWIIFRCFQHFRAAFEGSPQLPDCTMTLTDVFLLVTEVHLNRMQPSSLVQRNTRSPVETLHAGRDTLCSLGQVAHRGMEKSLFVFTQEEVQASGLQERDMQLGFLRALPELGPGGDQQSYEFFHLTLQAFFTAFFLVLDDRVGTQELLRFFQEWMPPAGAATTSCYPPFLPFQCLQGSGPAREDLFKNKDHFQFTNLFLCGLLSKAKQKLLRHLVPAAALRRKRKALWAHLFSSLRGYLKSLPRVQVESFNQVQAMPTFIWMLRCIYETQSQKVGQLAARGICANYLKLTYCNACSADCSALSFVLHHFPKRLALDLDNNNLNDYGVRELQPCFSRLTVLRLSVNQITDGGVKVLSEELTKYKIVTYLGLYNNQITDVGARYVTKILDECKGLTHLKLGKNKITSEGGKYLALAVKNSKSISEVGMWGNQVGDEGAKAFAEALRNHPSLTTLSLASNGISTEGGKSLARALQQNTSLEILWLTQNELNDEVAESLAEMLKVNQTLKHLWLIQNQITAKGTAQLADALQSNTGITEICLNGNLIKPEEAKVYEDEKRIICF

HEK293 [3] = assay: cells; conditions: Homo sapiens
cells = format: functional, cell-based; conditions: HEK-CNG
Galanin receptor type 3 = biological target: T2, Galanin receptor type 3 (Homo sapiens, UniProt O60755); assay: Fluorescence-based cell-based primary high throughput dose response assay to identify antagonists of the Galanin Receptor 3 (GalR3).; format: functional
T2 sequence (O60755 whole entry): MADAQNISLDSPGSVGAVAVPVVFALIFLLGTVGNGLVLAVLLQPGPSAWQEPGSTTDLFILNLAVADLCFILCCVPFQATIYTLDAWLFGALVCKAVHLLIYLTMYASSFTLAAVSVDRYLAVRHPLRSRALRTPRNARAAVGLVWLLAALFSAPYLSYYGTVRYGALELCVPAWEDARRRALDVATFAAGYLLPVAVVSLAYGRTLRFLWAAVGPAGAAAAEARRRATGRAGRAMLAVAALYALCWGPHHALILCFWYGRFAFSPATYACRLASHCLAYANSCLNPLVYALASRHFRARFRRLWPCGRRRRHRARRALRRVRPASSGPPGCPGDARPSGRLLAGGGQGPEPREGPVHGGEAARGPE

Jurkat = assay: blockers of NF-kB activation in T cells – Jurkat, luciferase reporter, luminescence, B- and T-cell, dose response (AID 489004); format: functional, cell-based; conditions: Homo sapiens;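 further: NF-kB luciferase reporter Jurkat cells stimulated with PMA plus ionomycin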
[4] = biological target: 26S proteasome non-ATPase regulatory subunit 14 (Homo sapiens, UniProt O00487); assay: inhibition of proteasome subunit RPN11 – biochemical, fluorescence polarization, uHTS hits, confirmation (AID 602368); format: functional
[5] = biological target: 72 kDa type IV collagenase (Homo sapiens, UniProt P08253); assay: Dose Response validation of uHTS RPN11 inhibitor hits using a MMP-2 Fluorescence assay.; format: functional
[6] = Trypanosoma cruzi growth suppression in host cells – NIH3T3 host cells, beta-gal luminescence, confirmation (AID 2044); format: functional, cell-based;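 further: intracellular parasites grown in NIH/3T3 mouse fibroblasts as host cells; luminescent beta-galactosidase reporter signal from transgenic T. cruzi replicating inside host cells; inhibitors lower the luminescence signal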
Prothrombin = Prothrombin (Bos taurus, UniProt P00735); assay: thrombin protease inhibitors – biochemical, fluorescence polarization, uHTS hits, dose response (AID 602369); format: functional
[7] = NIH3T3 cell viability loss – ATP luminescence, mouse fibroblasts, counter-screen, dose response (AID 2010); format: functional, cell-based;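 further: cells exposed to compound for about 90 hours before reading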
[8] = viability of uninfected HEp-2 cells – cell-based, HTS, cytotoxicity control for RSV inhibitor project, dose response (AID 2410); format: functional; conditions: human respiratory syncytial virus
[9] = biological target: T3, Small ubiquitin-related modifier 1 (Homo sapiens, UniProt P63165); assay: SUMO1 protein-protein binding blockers, potency – biochemical, FRET, dose response (AID 624383); format: functional; conditions: read-out: IC50_Mean
[10] = biological target: T3, Small ubiquitin-related modifier 1; assay: SUMO1 protein interaction blockers, potency – biochemical, fluorescence polarization, uHTS hits, dose response (AID 624382); format: functional; conditions: read-out: IC50_Mean
SUMO-activating enzyme [11] = biological target: T4, SUMO-activating enzyme (Homo sapiens, UniProt Q9UBT2); assay: blockers of UBC9-mediated SUMO conjugation – biochemical, AlphaScreen, SUMOylation inhibitor project, confirmation (AID 2018); format: functional
SUMO-activating enzyme [12] = biological target: T4, SUMO-activating enzyme; assay: blockers of SAE1/SAE2–UBC9 SUMO transfer – biochemical, HTRF, uHTS, primary screen (AID 2006); format: protein-complex assay
[13] = biological target: DNA (cytosine-5)-methyltransferase 1 (Homo sapiens, UniProt P26358); assay: inhibition of DNA methylation by DNMT1 – biochemical, fluorescent molecular beacon, confirmation (AID 602386); format: functional
[14] = cAMP pathway inhibition in counterscreen cell line – TR-FRET cAMP detection, counter-screen for MC4R biased antagonist project, dose response (AID 602305); format: functional, cell-based;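 further: U2OS cells stimulated with forskolin near its EC80 as the cAMP inducer; potency is for inhibition of forskolin-stimulated cAMP signaling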
Melanocortin receptor 4 = Melanocortin receptor 4 (Homo sapiens, UniProt P32245); assay: inhibitors of MC4R cAMP signaling – cell-based, TR-FRET, biased antagonists, dose response (AID 602298); format: functional;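 further: antagonist potency against agonist-stimulated cAMP production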
[15] = biological target: DNA repair and recombination protein RAD54-like (Homo sapiens, UniProt Q92698); assay: RAD54 Holliday junction migration blockers – biochemical, fluorescence, cherry-picked samples, dose series, confirmation (AID 651657); format: functional
HEK293 [16] = assay: HEK293T cell viability loss, resazurin readout – resazurin fluorescence, cytotoxicity control for NF-kB activator project, SAR follow-up (AID 493251); format: functional, cell-based; conditions: Homo sapiens
[17] = biological target: T5, Apoptotic protease-activating factor 1 (Homo sapiens, UniProt O14727); assay: SAR analysis of small molecule Activators of Apaf-1 in a Fluorescent assay.; format: functional; conditions: read-out: EC50_Mean;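 further: caspase-3 cleavage of fluorogenic Rh110 DEVD substrate downstream of apoptosome activation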
T5 sequence (O14727 whole entry): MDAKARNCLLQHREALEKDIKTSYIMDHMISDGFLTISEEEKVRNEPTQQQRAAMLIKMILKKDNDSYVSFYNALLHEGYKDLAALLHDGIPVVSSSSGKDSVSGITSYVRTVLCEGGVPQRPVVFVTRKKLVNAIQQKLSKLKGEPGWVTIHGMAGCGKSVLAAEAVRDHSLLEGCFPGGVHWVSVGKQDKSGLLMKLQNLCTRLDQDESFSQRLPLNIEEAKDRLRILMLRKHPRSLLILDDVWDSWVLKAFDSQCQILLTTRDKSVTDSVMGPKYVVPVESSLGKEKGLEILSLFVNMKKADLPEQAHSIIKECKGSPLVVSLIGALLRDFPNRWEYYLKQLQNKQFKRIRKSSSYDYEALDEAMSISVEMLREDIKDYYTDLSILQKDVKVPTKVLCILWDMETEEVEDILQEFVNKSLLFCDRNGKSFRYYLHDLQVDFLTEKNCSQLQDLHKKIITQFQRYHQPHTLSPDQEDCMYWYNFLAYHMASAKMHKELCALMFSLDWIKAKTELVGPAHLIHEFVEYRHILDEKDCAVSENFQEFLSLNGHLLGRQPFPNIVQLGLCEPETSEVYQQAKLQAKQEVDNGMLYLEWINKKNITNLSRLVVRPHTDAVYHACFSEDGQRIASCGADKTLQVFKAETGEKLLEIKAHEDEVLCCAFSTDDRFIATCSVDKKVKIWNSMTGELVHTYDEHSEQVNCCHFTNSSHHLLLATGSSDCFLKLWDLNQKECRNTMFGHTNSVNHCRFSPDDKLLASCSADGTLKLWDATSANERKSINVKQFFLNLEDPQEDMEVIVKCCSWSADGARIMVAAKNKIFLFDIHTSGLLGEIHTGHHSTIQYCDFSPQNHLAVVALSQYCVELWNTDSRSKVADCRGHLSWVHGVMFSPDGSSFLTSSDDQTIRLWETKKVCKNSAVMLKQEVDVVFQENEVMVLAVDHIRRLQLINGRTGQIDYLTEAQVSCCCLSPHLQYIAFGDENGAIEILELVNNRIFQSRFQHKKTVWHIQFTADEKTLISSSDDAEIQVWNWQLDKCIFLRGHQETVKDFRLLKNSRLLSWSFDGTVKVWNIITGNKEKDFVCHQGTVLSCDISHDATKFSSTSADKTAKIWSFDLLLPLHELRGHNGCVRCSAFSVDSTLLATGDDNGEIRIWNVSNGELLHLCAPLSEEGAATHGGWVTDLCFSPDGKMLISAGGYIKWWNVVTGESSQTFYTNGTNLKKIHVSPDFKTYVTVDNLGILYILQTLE

Sequence of Melanocortin receptor 4 (P32245 whole entry): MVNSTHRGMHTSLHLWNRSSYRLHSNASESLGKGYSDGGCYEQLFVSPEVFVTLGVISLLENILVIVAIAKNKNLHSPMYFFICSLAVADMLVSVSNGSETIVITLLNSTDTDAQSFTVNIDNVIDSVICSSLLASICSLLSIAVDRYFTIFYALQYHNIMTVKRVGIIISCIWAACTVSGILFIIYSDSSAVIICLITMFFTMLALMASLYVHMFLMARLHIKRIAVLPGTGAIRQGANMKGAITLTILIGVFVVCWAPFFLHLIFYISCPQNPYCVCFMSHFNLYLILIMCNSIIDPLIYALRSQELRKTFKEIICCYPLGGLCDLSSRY
T4 sequence (Q9UBE0 whole entry): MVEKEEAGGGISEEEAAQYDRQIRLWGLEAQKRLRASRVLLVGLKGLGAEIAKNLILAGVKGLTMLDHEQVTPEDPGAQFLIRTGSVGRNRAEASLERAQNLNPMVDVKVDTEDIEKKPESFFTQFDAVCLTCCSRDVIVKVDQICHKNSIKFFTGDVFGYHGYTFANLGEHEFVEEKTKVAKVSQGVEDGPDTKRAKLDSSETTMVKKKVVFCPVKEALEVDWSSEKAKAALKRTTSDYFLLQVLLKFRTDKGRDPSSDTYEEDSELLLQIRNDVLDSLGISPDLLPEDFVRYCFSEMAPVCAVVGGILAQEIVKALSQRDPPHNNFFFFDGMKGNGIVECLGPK
T4 sequence (Q9UBT2 whole entry): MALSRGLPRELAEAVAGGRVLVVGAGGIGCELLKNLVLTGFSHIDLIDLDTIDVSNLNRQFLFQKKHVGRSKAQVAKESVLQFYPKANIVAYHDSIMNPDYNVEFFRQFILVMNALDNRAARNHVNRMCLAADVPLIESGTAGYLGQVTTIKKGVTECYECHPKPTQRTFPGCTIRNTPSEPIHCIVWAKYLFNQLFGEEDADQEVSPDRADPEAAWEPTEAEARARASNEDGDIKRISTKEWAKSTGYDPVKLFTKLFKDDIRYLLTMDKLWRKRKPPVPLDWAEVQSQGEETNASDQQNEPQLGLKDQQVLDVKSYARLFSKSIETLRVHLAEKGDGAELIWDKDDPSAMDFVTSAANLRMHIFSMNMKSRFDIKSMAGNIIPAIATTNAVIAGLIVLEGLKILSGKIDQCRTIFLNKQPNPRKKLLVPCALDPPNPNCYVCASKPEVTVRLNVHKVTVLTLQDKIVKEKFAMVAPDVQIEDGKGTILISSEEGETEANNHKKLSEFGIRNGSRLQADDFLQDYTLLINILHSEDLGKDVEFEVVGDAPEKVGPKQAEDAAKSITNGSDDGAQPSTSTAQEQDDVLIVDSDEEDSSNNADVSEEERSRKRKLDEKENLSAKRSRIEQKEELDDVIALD
T3 sequence (P63165 whole entry): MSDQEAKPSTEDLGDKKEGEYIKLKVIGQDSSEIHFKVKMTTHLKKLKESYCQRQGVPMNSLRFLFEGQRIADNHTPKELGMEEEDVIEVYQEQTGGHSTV
Sequence of 26S proteasome non-ATPase regulatory subunit 14 (O00487 whole entry): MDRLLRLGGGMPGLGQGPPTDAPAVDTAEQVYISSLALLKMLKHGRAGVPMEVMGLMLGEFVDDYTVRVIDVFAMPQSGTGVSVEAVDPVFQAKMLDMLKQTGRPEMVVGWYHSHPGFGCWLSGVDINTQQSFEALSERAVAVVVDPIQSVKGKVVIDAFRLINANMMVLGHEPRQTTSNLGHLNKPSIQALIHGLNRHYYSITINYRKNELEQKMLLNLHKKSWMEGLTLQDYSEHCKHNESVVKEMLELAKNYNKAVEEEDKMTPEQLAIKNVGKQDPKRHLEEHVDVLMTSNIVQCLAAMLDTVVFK
Sequence of 72 kDa type IV collagenase (P08253 whole entry): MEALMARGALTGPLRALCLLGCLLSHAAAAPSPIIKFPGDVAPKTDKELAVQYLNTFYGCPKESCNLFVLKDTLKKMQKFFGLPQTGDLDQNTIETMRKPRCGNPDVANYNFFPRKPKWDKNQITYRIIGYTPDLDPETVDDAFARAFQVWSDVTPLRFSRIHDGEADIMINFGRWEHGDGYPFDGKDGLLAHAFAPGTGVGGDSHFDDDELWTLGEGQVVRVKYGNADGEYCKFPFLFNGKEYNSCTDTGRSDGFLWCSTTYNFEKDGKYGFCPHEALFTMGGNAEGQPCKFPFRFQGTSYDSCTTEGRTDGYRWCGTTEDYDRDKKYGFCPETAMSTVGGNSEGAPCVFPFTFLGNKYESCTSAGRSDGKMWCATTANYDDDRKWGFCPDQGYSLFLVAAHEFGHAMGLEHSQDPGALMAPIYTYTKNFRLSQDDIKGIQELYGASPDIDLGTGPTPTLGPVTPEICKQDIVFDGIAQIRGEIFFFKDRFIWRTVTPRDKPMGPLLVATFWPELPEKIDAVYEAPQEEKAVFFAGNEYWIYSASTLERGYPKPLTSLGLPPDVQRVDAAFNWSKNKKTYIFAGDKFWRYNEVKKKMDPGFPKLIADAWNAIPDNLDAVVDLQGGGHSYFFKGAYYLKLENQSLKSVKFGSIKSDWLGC
Sequence of Tumor necrosis factor (P01375 whole entry): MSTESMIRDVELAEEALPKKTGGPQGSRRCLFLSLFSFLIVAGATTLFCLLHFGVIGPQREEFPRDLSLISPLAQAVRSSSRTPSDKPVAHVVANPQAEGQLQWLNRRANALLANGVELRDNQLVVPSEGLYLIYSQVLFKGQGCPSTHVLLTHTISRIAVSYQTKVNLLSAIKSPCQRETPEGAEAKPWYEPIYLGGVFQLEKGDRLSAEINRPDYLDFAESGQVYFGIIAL
Sequence of DNA repair and recombination protein RAD54-like (Q92698 whole entry): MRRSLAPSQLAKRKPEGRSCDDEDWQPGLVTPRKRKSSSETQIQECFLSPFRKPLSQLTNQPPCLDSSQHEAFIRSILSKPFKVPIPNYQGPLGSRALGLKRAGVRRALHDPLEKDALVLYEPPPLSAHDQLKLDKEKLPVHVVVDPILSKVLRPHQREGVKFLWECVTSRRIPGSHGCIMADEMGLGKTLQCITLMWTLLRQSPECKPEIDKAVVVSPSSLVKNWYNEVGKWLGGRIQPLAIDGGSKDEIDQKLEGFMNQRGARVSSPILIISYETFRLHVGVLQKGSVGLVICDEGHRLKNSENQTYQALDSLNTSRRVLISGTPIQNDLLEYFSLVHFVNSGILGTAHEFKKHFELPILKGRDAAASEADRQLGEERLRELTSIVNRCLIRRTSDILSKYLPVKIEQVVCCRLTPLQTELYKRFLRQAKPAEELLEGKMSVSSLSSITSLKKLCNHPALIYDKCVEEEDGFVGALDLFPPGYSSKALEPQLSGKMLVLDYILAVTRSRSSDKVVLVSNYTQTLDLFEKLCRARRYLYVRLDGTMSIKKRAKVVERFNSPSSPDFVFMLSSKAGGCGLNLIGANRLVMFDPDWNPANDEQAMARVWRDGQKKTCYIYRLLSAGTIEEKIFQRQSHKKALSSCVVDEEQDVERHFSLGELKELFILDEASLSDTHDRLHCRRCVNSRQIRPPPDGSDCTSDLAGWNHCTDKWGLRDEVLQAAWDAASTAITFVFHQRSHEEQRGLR
Sequence of DNA (cytosine-5)-methyltransferase 1 (P26358 whole entry): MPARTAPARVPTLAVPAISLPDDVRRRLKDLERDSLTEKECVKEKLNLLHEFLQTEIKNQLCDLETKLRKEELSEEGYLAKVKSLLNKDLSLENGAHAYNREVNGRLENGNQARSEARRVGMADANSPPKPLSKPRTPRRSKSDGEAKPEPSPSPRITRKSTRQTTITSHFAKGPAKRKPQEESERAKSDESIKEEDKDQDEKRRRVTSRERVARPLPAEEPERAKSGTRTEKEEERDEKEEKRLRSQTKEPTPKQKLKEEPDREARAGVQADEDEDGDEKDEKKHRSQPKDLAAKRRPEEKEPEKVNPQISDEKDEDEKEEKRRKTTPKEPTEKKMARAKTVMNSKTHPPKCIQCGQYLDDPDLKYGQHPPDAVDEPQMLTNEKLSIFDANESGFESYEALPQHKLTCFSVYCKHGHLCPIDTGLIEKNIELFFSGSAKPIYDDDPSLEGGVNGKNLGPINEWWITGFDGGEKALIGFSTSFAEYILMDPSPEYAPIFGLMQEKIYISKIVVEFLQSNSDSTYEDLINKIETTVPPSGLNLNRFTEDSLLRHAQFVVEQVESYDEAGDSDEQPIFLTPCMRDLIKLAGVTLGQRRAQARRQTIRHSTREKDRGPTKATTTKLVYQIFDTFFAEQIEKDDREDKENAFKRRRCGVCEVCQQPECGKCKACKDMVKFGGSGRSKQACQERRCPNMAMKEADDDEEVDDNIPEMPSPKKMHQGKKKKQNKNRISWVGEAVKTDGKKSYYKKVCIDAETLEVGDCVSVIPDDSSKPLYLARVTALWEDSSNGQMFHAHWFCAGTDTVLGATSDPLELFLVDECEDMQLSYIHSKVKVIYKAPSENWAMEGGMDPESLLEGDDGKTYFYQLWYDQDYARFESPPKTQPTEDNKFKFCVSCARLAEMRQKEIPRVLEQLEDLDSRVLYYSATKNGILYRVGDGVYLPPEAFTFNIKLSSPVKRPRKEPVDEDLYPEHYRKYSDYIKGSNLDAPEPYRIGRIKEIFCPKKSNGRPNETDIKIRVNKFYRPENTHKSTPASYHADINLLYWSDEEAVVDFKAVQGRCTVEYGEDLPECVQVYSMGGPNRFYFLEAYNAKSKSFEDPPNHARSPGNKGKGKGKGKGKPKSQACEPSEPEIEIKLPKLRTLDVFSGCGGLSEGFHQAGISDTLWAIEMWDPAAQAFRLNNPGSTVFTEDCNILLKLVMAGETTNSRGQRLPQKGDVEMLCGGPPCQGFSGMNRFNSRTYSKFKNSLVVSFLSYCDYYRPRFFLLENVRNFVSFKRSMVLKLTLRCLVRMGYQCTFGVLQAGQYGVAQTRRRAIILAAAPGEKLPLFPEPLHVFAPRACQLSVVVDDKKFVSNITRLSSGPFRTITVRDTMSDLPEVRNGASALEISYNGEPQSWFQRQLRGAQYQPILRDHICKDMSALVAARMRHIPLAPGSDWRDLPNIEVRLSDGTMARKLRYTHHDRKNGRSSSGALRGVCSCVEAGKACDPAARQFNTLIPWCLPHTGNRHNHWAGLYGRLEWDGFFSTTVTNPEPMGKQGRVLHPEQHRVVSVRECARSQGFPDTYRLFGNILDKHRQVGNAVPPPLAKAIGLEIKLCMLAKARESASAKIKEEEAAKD

With `Cn1nccc1C(=O)NC1CCCc2c1cnn2-c1ccc(F)cc1F` (centres undefined) the IC50 [1] was > 80 µM (inactive), the IC50 (Tumor necrosis factor) was 712 nM (active) and the AC50 (INS1) was 1.44 µM (active). For the same molecule, the IC50 [2] was 677 nM (active), the IC50 (HEK293 [3]) was > 20 µM (inactive) and the EC50 (cells) was > 29.9 µM (inactive). The IC50 (Galanin receptor type 3) was 240 nM (active) and the IC50 (Jurkat) was > 80 µM (inactive).
With `O=C(N/N=C\c1ccc(-c2ccc([N+](=O)[O-])cc2)o1)C1COc2ccccc2O1` (centres undefined) the IC50 [4] was 28.2 µM (active), the IC50 [5] was > 100 µM (inactive) and the EC50 [6] was 620 nM (active). The IC50 (Prothrombin) was 36.4 µM (active) and the EC50 [7] was > 60 µM (not active).
In the case of `CCc1ccc(/C=C2\SC(=S)N(CCC(=O)N3CCN(C)CC3)C2=O)cc1`, the IC50 [4] is reported as 51.6 µM (active), the CC50 [8] is reported as 18.6 µM (active) and the IC50 [5] is reported as > 100 µM (inactive). The IC50 (Prothrombin) was 82.7 µM (active).
With `C/C(=N\NC(=O)c1cc(O)cc(O)c1)c1ccc(NC(=O)Cc2ccccc2)cc1` the IC50 [9] was 12 µM (active), the IC50 [10] was 50.1 µM (inactive) and the IC50 (SUMO-activating enzyme [11]) was 740 nM (active). The IC50 (SUMO-activating enzyme [12]) was 9.77 µM (active) and the IC50 [13] was 4.69 µM (active).
With `CCOc1ccc(Nc2nc(Cl)nc(N3CCN(c4ccc(OC)cc4)CC3)n2)cc1` the IC50 [14] was > 64.6 µM (inactive) and the IC50 (Melanocortin receptor 4) was > 64.6 µM (inactive).
In the case of `Cc1ccc2nc3c(c(N)c2c1)CCN3c1ccccc1`, the AC50 [15] is reported as 42.5 µM (active).
For `CC(C)(C)c1ccc(-c2noc(CCC(=O)NC3CC3)n2)cc1`, the IC50 (HEK293 [16]) was > 80 µM (inactive).
For `O=C1CC2(CC(c3ccc(Cl)cc3)=NO2)C(=O)N1c1cccc(Cl)c1` (centres undefined), the EC50 [17] was > 100 µM (inactive).
In the case of `O=C(/C=C/c1cccs1)N1CCC2(CC1)Oc1ccc(Cl)cc1C(=O)C21CC(c2cccnc2)=NO1` (centres undefined), the IC50 [14] is reported as > 64.6 µM (inactive) and the IC50 (Melanocortin receptor 4) is reported as > 64.6 µM (inactive).
